Experimental data as given in ChEMBL document CHEMBL1201862, “PubChem BioAssay data set” (2004).
Activity calls are given as the source filed them.

Assays:
[1] = target: Glucose-6-phosphate 1-dehydrogenase (Homo sapiens, UniProt P11413); assay: inhibition of Homo sapiens G6PD, dose series – biochemical, fluorescence, selectivity assay for P. falciparum G6PD inhibitor project, dose response (AID 504792); format: functional
Cytochrome P450 3A4 [2] = target: T1, Cytochrome P450 3A4 (Homo sapiens, UniProt P08684);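 note: CYP3A4 tested as one member of a cytochrome P450 panel screen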
T1 sequence (P08684 whole entry): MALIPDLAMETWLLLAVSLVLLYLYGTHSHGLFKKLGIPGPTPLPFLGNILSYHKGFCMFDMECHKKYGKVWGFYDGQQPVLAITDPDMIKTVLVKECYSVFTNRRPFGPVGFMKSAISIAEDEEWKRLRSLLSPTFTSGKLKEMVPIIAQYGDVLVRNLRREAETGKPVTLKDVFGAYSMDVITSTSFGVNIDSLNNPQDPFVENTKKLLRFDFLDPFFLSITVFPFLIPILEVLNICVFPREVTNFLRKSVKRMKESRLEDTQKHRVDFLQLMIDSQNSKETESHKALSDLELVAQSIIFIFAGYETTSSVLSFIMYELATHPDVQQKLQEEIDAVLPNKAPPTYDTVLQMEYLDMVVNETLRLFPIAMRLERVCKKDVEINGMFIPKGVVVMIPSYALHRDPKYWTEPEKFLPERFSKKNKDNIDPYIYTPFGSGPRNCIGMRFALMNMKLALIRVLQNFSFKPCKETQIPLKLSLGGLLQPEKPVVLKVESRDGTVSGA

Cytochrome P450 2D6 = Cytochrome P450 2D6 (Homo sapiens, UniProt P10635);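 note: CYP2D6 member of a cytochrome P450 panel assay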
Chain of Cytochrome P450 2D6 (P10635 whole entry): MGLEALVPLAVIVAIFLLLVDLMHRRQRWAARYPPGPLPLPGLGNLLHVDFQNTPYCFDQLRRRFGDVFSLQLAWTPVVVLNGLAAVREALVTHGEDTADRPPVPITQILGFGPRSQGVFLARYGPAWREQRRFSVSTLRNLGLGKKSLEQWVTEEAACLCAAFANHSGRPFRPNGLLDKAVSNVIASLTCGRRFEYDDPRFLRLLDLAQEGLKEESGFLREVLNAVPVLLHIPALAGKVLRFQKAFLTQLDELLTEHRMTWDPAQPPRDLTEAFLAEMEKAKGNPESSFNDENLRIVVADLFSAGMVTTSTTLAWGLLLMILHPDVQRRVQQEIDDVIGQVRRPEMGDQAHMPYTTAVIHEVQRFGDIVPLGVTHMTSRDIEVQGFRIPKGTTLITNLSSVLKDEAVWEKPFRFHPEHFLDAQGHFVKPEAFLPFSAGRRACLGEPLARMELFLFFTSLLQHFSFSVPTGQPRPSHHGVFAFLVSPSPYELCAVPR

Cytochrome P450 2C19 = Cytochrome P450 2C19 (Homo sapiens, UniProt P33261); assay: Cytochrome panel assay with activity outcomes. Panel member name: p450-cyp2c19 Compounds with AC50 equal or less than 10 uM are considered active; format: functional
Chain of Cytochrome P450 2C19 (P33261 whole entry): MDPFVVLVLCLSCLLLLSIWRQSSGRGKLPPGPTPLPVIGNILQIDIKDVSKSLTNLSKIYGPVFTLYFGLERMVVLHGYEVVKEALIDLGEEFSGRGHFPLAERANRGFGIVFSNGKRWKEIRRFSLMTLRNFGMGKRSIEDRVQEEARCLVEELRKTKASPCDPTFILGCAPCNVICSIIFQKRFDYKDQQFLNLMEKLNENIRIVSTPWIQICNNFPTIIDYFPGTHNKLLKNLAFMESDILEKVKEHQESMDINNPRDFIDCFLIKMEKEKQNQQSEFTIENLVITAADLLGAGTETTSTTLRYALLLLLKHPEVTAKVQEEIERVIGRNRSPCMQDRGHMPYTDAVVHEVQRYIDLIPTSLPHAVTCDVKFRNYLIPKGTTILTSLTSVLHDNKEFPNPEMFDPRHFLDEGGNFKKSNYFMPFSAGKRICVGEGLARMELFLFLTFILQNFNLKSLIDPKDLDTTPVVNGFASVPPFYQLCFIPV

HeLa [3] = assay: viability loss in HeLa cells – cell-based, 24 h, cherry-picked samples, cytotoxicity control, dose response (AID 504726); format: functional; details: Homo sapiens;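 note: potency for cytotoxicity as loss of luminescence signal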
[4] = target: UDP-galactopyranose mutase (Mycobacterium tuberculosis, UniProt P9WIQ1); assay: Inhibitors of Mycobacterium tuberculosis UDP-galactopyranose mutase (UGM) enzyme Measured in Biochemical System Using Plate Reader - 2105-02_Inhibitor_Dose_CherryPick_Activity. [Related pubchem assays (depositor defined):AID504439]
Chain of UDP-galactopyranose mutase (P9WIQ1 whole entry): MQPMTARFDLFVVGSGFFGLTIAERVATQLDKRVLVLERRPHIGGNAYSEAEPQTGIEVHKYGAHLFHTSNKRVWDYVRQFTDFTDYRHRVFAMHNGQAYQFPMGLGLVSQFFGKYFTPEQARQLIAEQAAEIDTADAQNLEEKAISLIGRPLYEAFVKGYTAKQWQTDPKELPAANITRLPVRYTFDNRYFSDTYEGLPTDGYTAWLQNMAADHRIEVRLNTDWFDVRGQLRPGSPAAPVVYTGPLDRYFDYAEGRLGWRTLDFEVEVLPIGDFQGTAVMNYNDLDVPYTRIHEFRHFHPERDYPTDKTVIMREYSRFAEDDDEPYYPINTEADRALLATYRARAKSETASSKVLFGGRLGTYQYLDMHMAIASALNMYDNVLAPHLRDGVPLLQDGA

Beta-lactamase [5] = target: Beta-lactamase (Salmonella choleraesuis (strain SC-B67), UniProt Q5J463)
Chain of Beta-lactamase (Salmonella choleraesuis (strain SC-B67), UniProt Q5J463) (Q5J463 whole entry): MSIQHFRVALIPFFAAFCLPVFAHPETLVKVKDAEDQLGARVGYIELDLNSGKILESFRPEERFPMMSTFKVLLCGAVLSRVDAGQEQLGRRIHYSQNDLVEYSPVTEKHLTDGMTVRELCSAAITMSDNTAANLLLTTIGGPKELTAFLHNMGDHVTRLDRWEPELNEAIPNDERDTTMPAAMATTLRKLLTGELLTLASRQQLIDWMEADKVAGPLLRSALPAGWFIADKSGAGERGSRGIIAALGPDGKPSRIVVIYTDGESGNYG

Beta-lactamase [6] = target: Beta-lactamase (Pseudomonas aeruginosa, UniProt Q79MP6);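 note: biochemical dose-response test of metallo-beta-lactamase enzyme inhibition, read out by epi-absorbance; purified recombinant IMP-1 metallo-beta-lactamase with nitrocefin as substrate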
ORF 73 = ORF 73 (Human herpesvirus 8, UniProt O40947); assay: KSHV LANA DNA-binding disruption – biochemical, fluorescence polarization, cherry-picked samples, dose response (AID 504725); set-up: species or system Human gammaherpesvirus 8;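 note: fluorescence polarization of a labeled DNA duplex reporting LANA DNA binding; potency is for inhibitors that block LANA binding to the DNA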
Chain of ORF 73 (O40947 whole entry): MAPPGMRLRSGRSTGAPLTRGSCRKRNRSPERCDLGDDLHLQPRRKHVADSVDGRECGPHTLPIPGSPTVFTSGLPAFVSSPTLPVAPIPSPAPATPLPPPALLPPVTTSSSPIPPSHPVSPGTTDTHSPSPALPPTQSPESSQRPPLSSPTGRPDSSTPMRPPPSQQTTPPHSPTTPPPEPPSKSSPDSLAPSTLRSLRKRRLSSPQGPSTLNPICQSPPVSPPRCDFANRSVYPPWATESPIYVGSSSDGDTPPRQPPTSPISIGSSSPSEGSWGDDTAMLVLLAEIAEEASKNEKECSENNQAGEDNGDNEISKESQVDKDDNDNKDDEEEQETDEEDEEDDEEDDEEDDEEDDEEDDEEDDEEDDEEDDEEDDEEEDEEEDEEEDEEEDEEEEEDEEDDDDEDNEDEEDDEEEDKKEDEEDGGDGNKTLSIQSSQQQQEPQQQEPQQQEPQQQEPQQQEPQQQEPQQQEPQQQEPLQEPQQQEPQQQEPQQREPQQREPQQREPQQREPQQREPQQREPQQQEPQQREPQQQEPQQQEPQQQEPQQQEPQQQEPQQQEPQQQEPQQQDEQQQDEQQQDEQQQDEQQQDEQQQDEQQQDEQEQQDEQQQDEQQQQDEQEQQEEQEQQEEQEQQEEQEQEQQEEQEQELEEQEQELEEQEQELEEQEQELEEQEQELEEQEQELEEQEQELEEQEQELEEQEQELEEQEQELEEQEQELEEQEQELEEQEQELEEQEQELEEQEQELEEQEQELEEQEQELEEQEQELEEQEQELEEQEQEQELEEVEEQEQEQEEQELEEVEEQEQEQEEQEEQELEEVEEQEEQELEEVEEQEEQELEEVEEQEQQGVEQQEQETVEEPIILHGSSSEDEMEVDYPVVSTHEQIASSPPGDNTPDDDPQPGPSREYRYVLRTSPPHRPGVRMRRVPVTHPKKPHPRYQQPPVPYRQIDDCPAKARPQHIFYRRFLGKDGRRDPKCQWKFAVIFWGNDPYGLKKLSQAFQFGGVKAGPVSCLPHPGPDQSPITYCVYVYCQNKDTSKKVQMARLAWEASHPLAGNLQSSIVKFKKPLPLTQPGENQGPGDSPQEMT

Escherichia coli = assay: microbe, parasite or virus in culture
[7] = target: DNA dC->dU-editing enzyme APOBEC-3G (Homo sapiens, UniProt Q9HC16); format: functional;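 note: Dose-response counterscreen measuring inhibition of APOBEC3G DNA deaminase activity, run while confirming APOBEC3A inhibitors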
Chain of DNA dC->dU-editing enzyme APOBEC-3G (Q9HC16 whole entry): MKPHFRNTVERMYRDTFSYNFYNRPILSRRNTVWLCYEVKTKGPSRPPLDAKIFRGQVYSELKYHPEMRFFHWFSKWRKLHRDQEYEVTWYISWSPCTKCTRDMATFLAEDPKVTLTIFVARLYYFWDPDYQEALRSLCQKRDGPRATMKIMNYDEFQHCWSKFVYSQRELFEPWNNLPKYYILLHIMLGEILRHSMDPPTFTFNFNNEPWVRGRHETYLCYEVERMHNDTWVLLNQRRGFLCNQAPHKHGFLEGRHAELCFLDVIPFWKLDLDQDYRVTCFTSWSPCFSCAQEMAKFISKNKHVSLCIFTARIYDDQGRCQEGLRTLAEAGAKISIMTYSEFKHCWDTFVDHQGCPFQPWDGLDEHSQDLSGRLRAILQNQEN

[8] = target: DNA dC->dU-editing enzyme APOBEC-3A (Homo sapiens, UniProt P31941); assay: Dose Response confirmation of small molecule APOBEC3A DNA Deaminase Inhibitors via a fluorescence-based single-stranded DNA deaminase assay. [Related pubchem assays (depositor defined):AID493011, AID493024]; format: functional
Chain of DNA dC->dU-editing enzyme APOBEC-3A (P31941 whole entry): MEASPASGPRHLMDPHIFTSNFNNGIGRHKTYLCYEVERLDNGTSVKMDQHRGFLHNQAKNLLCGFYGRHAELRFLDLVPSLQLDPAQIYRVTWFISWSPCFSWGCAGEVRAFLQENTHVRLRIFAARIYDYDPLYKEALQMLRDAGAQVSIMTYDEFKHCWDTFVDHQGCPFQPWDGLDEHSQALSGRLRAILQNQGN

[9] = target: Induced myeloid leukemia cell differentiation protein Mcl-1 (Homo sapiens, UniProt Q07820); format: functional
Estrogen receptor beta = Estrogen receptor beta (Homo sapiens, UniProt Q92731); assay: blockers of SRC-3 recruitment to ERβ – biochemical, ELISA, streptavidin-HRP readout, orthogonal assay, confirmation (AID 1060)
Chain of Estrogen receptor beta (Q92731 whole entry): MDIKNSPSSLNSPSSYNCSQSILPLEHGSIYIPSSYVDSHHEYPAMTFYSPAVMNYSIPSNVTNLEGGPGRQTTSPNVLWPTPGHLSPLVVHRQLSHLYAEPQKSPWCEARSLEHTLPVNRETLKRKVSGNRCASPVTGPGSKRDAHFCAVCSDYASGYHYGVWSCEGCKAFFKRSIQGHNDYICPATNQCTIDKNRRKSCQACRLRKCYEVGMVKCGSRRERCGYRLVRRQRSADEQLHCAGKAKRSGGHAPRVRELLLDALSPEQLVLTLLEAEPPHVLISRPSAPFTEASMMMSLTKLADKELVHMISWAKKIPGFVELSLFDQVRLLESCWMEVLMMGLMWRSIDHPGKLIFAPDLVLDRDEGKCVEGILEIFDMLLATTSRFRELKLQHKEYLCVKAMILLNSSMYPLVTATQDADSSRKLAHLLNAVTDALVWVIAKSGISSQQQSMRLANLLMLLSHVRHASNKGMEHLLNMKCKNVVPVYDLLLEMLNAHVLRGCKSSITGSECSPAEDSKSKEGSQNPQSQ

Estrogen receptor = target: T2, Estrogen receptor (Homo sapiens, UniProt P03372);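 note: potency for inhibiting coactivator peptide recruitment to the receptor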
T2 sequence (P03372 whole entry): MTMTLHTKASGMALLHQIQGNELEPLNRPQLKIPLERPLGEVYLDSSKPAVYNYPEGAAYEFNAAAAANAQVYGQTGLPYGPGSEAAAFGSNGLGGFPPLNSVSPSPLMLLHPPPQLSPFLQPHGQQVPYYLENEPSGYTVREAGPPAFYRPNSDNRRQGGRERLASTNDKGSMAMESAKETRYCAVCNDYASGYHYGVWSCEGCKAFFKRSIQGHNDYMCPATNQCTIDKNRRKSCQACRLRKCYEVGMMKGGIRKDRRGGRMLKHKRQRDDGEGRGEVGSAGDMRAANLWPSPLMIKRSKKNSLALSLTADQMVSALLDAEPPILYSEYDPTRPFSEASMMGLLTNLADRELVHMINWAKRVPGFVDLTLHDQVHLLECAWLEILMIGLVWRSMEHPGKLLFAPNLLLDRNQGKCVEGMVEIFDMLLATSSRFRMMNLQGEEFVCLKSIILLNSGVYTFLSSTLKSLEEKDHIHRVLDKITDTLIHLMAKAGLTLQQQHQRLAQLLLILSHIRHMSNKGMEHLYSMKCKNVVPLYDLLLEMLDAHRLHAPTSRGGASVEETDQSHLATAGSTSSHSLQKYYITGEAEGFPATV

[10] = target: T3, Carboxy-terminal domain RNA polymerase II polypeptide A small phosphatase 1 (Homo sapiens, UniProt Q9GZU7); assay: CTDSP1 inhibitors, concentration-response, biochemical, absorbance readout, ultra-high-throughput screen actives (AID 540297); format: functional
T3 sequence (Q9GZU7 whole entry): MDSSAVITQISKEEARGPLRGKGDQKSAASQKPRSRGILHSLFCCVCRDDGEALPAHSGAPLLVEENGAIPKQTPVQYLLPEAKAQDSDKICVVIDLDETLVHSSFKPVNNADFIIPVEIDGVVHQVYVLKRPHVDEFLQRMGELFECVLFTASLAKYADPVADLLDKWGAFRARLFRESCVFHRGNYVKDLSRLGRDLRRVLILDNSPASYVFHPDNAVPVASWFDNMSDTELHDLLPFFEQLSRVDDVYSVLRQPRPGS

Cytochrome P450 3A4 [11] = target: T1, Cytochrome P450 3A4; remark: listed apart in the source
Cytochrome P450 1A2 = target: T4, Cytochrome P450 1A2 (Homo sapiens, UniProt P05177);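 note: PubChem cytochrome P450 panel assay, CYP1A2 panel member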
T4 sequence (P05177 whole entry): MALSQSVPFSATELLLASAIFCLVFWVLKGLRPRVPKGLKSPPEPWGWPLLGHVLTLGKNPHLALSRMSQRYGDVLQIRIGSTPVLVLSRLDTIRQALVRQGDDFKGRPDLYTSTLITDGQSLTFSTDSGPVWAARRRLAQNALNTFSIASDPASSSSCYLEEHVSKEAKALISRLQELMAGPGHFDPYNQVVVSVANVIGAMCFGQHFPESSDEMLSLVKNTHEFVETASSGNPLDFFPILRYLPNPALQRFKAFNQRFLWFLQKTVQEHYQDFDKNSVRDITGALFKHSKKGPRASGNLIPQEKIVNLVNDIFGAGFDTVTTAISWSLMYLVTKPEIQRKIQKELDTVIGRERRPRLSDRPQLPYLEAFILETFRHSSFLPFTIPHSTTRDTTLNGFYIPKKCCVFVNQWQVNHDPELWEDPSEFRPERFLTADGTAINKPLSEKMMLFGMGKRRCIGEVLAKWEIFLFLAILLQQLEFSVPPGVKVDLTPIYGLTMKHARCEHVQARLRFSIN

[12] = target: T5, Mannose-6-phosphate isomerase (Homo sapiens, UniProt P34949); assay: MPI inhibition at elevated mannose 6-phosphate – biochemical, fluorescence intensity, high mannose 6-phosphate, primary screen (AID 1220)
T5 sequence (P34949 whole entry): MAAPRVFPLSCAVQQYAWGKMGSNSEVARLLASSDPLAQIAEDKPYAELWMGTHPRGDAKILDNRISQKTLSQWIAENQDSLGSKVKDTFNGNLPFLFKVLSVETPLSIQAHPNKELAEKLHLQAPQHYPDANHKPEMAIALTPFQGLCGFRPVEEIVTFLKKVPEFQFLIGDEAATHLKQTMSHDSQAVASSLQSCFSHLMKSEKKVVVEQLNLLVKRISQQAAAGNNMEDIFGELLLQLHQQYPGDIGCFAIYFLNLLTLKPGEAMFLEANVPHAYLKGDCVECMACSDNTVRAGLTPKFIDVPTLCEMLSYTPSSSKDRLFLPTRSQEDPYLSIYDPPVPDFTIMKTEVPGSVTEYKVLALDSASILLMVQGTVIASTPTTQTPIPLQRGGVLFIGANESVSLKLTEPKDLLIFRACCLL

[13] = target: T6, Type-1 angiotensin II receptor (Homo sapiens, UniProt P30556); assay: agonist activity at AGTR1 – cell-based, uHTS hits, selectivity assay for APJ receptor agonist project, dose response (AID 488865); format: functional;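 note: beta-arrestin recruitment to AT1 measured by enzyme fragment complementation luminescence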
T6 sequence (P30556 whole entry): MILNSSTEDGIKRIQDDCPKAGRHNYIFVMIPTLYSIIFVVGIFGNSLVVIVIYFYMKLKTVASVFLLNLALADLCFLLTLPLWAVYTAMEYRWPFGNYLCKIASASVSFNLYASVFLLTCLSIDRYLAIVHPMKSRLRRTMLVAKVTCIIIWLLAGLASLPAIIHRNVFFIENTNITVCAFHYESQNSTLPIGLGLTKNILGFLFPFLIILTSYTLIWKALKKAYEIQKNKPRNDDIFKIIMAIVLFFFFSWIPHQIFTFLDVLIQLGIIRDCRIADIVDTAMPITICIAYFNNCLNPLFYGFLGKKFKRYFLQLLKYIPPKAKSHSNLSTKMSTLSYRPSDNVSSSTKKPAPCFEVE

[14] = target: T5, Mannose-6-phosphate isomerase; assay: phosphomannose isomerase inhibition – biochemical, fluorescence intensity, confirmation (AID 1535)
A-375 [15] = assay: proliferation inhibition in MITF-low A375 cells – cell-based, cherry-pick samples, set 2, counter-screen for MITF modulator project, dose response (AID 540335); format: functional; details: Homo sapiens
A-375 [16] = assay: MITF: Counter assay: A375 proliferation Measured in Cell-Based System Using Plate Reader - 2084-03_Inhibitor_Dose_DryPowder_Activity. [Related pubchem assays (depositor defined):AID488944]; format: functional; details: Homo sapiens
[17] = viability loss in human Jurkat cells – cell-based, luminescence, cytotoxicity control for P. falciparum gametocyte viability project, dose response (AID 1117277); format: functional;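 note: potency reflects loss of cellular ATP meaning fewer viable cells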
[18] = target: T7, Corticotropin-releasing factor receptor 2/Corticotropin-releasing factor-binding protein (Homo sapiens, UniProt P24387+Q13324); assay: activators of CRF receptor 2 with binding protein – uHTS hits, confirmation (AID 602473); format: functional; details: read-out: EC50_Mean
T7 sequence (Q13324 whole entry): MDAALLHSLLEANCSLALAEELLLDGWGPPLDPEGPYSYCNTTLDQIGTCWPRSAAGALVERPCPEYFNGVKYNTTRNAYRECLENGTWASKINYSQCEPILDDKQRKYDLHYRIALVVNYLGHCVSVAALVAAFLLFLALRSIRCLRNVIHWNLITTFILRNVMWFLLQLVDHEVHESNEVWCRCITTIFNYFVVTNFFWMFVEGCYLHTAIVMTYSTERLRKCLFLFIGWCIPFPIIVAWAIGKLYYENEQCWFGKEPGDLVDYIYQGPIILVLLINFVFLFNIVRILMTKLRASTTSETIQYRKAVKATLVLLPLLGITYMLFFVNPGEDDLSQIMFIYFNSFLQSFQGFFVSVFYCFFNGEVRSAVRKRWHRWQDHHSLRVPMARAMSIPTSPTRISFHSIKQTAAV
T7 sequence (P24387 whole entry): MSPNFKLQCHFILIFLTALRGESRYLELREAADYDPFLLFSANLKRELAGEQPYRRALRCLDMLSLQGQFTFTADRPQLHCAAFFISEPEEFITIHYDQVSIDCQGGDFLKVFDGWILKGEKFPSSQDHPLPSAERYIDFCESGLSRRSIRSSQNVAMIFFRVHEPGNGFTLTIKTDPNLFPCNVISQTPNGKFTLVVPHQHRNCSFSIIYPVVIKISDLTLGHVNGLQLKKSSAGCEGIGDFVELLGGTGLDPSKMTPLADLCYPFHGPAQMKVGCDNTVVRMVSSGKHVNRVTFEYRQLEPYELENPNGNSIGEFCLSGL

[19] = viability inhibitors of stage V gametocytes – luminescence, dose response (AID 1117278); format: functional, cell-based;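 note: gametocytes exposed to compound for 24 hours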
HeLa [20] = assay: ATP-based viability loss in HeLa cells – cell-based, CellTiter-Glo luminescence, cherry-pick samples, cytotoxicity control for MITF activator project, dose response (AID 540259); format: functional; details: Homo sapiens

Chain of Glucose-6-phosphate 1-dehydrogenase (P11413 whole entry): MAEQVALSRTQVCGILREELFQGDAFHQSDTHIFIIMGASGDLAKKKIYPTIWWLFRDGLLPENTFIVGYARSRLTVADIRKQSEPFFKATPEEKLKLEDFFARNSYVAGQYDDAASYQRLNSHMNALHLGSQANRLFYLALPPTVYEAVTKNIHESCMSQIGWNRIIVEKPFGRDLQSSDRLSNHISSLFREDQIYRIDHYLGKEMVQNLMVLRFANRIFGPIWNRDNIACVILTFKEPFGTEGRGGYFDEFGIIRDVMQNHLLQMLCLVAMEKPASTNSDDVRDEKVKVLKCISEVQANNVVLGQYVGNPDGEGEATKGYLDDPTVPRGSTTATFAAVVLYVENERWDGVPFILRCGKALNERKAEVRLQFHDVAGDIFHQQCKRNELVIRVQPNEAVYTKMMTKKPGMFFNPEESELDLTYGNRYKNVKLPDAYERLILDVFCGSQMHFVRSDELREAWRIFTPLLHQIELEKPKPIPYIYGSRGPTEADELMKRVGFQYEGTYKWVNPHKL

Cc1ccc(-c2nn(C)c(=O)c3ccccc23)cc1CNC(=O)/C=C/c1ccccc1
IC50 [1]: 49.5 µM (inactive)

C=C(C)CNCC(=C)C.Oc1c(Cl)c(Cl)c(Cl)c(Cl)c1Cl
AC50 (Cytochrome P450 3A4 [2]): inactive | AC50 (Cytochrome P450 2D6): inactive | AC50 (Cytochrome P450 2C19): inconclusive

Cc1nn(C)c(C)c1N1C(=O)c2cccc3c(N)ccc(c23)C1=O
AC50 (HeLa [3]): 264 µM (active) | AC50 [4]: 1.39 µM (active) | IC50 (Beta-lactamase [5]): 5.25 µM (active) | IC50 (Beta-lactamase [6]): 9.3 µM (active) | AC50 (ORF 73): 0.81 µM (active)

COc1c2ccoc2nc2c(OC)c(OC[C@@H](O)C(C)(C)O)ccc12
AC50 (Escherichia coli): 54.2 µM (active)

C=CCNC(=O)c1ccccc1NC(=O)C1CCN(S(=O)(=O)c2ccc(SC)cc2)CC1
IC50 [7]: 6.15 µM (active) | IC50 [8]: 5.28 µM (active)

O=C(Cc1ccc(S(=O)(=O)N2CCOCC2)s1)Nc1nc2c(s1)CCCC2
IC50 [9]: 4.44 µM (active) | IC50 (Estrogen receptor beta): 5.27 µM (not active) | IC50 [7]: 33.7 µM (active) | IC50 [8]: 10.5 µM (active) | IC50 (Estrogen receptor): 4.69 µM (active) | IC50 [10]: 3.2 µM (active) | AC50 (Cytochrome P450 3A4 [11]): 14.1 µM (inconclusive) | AC50 (Cytochrome P450 1A2): 28.2 µM (inconclusive)

C=CCSc1nc2sc3c(c2c(=O)n1CC)CCc1ccccc1-3
IC50 [12]: 13.5 µM (active) | IC50 [1]: > 80 µM (inactive)

CC(=O)O.CN1CCN(CN2C(=O)C3C4C=CC(C3C2=O)C2C3C(=O)N(CN5CCN(C)CC5)C(=O)C3C42)CC1 (centres undefined)
AC50 (Cytochrome P450 2D6): inconclusive

COc1ccccc1-n1c(O)cc(=O)nc1SC
EC50 [13]: > 100 µM (inactive)

CCOC(=O)c1nnc(/N=c2\ssnc2Cl)o1
IC50 [14]: 32.5 µM (active)

Cc1ccc(NC(=O)Nc2ccccc2)nc1
AC50 (A-375 [15]): > 35 µM (active) | AC50 (A-375 [16]): > 35 µM (active)

O=C(NCc1ccc(OC(F)(F)F)cc1)c1cccc2c1C(=O)c1ccc(N3CCCCC3)cc1S2(=O)=O
AC50 [4]: 7.54 µM (active) | IC50 [17]: > 83.3 µM (inactive) | EC50 [18]: 6.58 µM (active) | IC50 [19]: > 109 µM (inactive)

COc1ccccc1N1CCN(/N=C/c2cccc(Cl)c2)CC1
AC50 (A-375 [15]): > 35 µM (active) | AC50 (HeLa [20]): 161 µM (active) | AC50 (A-375 [16]): > 35 µM (active)
